{
  "source": "patent US4096252A",
  "about": "“4-Trifluoromethylbenzoic acid derivatives as thromboembolic agents” (priority 1976, dated 1978)",
  "key": {"[1]": {"tested_on": "human platelet aggregation", "assay": "Human platelet aggregation induced by collagen after oral administration to humans", "assay_type": "in vivo", "conditions": "collagen 33.3 μg/m, one value per human", "description": "The significance of the parameters employed in Table IV (x, y and delay) is indicated; and\n(§1) In the in vivo tests on humans, the two selected compounds were administered per os during six consecutive days at equimolar doses: 200 mg three times a day of 2-acetoxy-4-trifluoromethylbenzoic acid and 248 mg three times a day of 2-phosphonoxy-4-trifluoromethylbenzoic acid.\n(§2) Blood was collected on the first, fourth and seventh day of the test and the platelet aggregation induced by ADP, epinephrine and collagen was determined according to the above-mentioned Born method.\n(§3) EFFECT OF 2-ACETOXY-4-TRIFLUOROMETHYLBENZOIC ACID\n(§4) AND 2-PHOSPHONOXY-4-TRIFLUOROMETHYLBENZOIC\nACID ON PLATELET AGGREGATION INDUCED BY\nCOLLAGEN AFTER ORAL ADMINISTRATION TO HUMANS*.\n*An increase of delay time and x and a decrease of y with respect to\ncontrol indicate an inhibitory effect on platelet aggregation (see FIG."}, "rat platelet aggregation": {"tested_on": "rat platelet aggregation", "assay": "In vitro inhibition of rat platelet aggregation (Born and Cross method)", "assay_type": "cell-based", "conditions": "Rattus norvegicus, Platelet, rat plasma, read-out: Platelet Aggregation Inhibition (PAI); for inhibition at 4150 µM: plasma concentration 4.15×10^-3 molar; for inhibition at 8300 µM: plasma concentration 8.30×10^-3 molar", "description": "Platelet aggregation was measured according to the method of Born and Cross (8) by using rat and human plasma."}, "[2]": {"tested_on": "blood coagulation factors and fibrinolysis", "assay_type": "in vivo, human", "conditions": "oral; for Euglobin lysis time: Von Kaulas's test / Activated kaolin test / Activated partial thromboplastin test: APTI / Howell's test / Plasma prothrombine test: Quick test / Serum prothrombin time / Bleeding time, Duke test / Clotting time / Thromboelastogram K / Thromboelastogram r: mean ± s.e.m.; for Euglobin lysis time: Von Kaulas's test: decrease vs control = drug effect; for Activated kaolin test / Activated partial thromboplastin test: APTI / Howell's test / Plasma prothrombine test: Quick test / Serum prothrombin time: decrease vs control = inhibitory effect; for Bleeding time, Duke test / Clotting time / Thromboelastogram K / Thromboelastogram r: increase vs control = inhibitory effect", "description": "The values r and k (in parameter 15 of Table V) correspond to blood (b). Their significance appears from the Figure.\nas §1, §2\nThe potential anticoagulant and fibrinolytic activity of the claimed compounds has therefore likewise been investigated. For this purpose, with the same blood samples used for the determination of in vivo antiaggregating action on humans, the following parameters were examined: clotting time, bleeding time (Duke test), tourniquet test, Parrot's test, plasma prothrombine test (Quick test), activated partial thromboplastin test (APTT), activated Kaolin test, Howell's test, serum prothrombin time, euglobulin lysis time, Von Kaula's test, degradation products of fibrinogen (DPF), platelet count, clot retraction, hematocrit and thromboelastogram.\nEFFECT OF 2-ACETOXY-4-TRIFLUOROMETHYLBENZOIC ACID AND 2-PHOSPHONOXY-4-TRIF\nZOIC ACID ON BLOOD COAGULATION FACTORS AND FIBRINOLYSIS*.\ntreated with 2-acetoxy-4-trifluoromethylbenzoic acid and on 6 humans\ntreated with 2-phos phonoxy-4-trifluoromethylbenzoic acid. An increase of\nthe mean values (±s.e.m.) of parameters 1 and 2 or a decrease of\nparameters 5,6,7,8,9,10 and 11 with respect to control, mean an inhibitor\neffec of drugs on the blood coagulation and fibrinolysis.\n**An increase of r and k values with respect to control, indicates an\ninhibitory effect of the drugs on blood coagulation and also on platelet\naggregation. These figures are indicated in FIG. 2 which corresponds to a\nnormal thromboelastogram."}, "[3]": {"tested_on": "human platelet aggregation", "assay": "In vitro inhibition of human platelet aggregation (Born and Cross method)", "assay_type": "cell-based", "conditions": "read-out: Platelet Aggregation Inhibition (PAI); for inhibition at 8300 µM: plasma concentration 8.30×10^-3 molar", "description": "Platelet aggregation was measured according to the method of Born and Cross (8) by using rat and human plasma. The results are summarized below in Tables I and II.\nKey : PC = Plasma Concentration: PAI = Platelet Aggregation\n*The percent of inhibition was calculated using the method described by\nMcKenzie (Proc. Soc. Exp. Biol. Med. 137: 662, 1971)."}, "[4]": {"tested_on": "human platelet aggregation", "assay": "Human platelet aggregation induced by ADP and epinephrine after oral administration to humans", "assay_type": "in vivo", "conditions": "Tables III and IV", "description": "as §1, §2, §3, §4\nACID ON PLATELET AGGREGATION INDUCED BY ADP AND\nEPINEPHRINE AFTER ORAL ADMINISTRATION TO HUMANS*\n*The figures express the concentration (μM) that produces irreversible"}, "[5]": {"conditions": "4th day, increase vs control = inhibition"}},
  "note": "Values joined by “and” are separate entries in the source; they are usually repeats but may differ in a detail not shown here. Equal entries are not always repeated. Where two headings read alike, the source gives them in different places.",
  "data": [
    {"molecule": "CC(=O)Oc1cc(C(F)(F)F)ccc1C(=O)O", "note": "[2-acetoxy-4-trifluoromethylbenzoic acid]", "values": [
      {"measurement": "y (collagen-induced aggregation curve)", "setting": "[1]; 4th day, decrease vs control = inhibition", "value": "41 mm and 45 mm"},
      {"measurement": "delay (collagen-induced aggregation curve)", "setting": "[1]; [5]", "value": "60 xc and 72 xc"},
      {"measurement": "x (collagen-induced aggregation curve)", "setting": "[1]; [5]", "value": "22 mm and 24 mm and 17 mm and 25 mm"},
      {"measurement": "delay (collagen-induced aggregation curve)", "setting": "[1]; 7th day, increase vs control = inhibition", "value": "108 xc and 60 xc and 96 xc and 72 xc and 84 xc"},
      {"measurement": "inhibition at 830 µM", "setting": "rat platelet aggregation; ADP 4.1×10^-6 M, plasma concentration 0.83×10^-3 molar", "value": 26, "unit": "%"},
      {"measurement": "inhibition at 2080 µM", "setting": "rat platelet aggregation; ADP 4.1×10^-6 M, plasma concentration 2.08×10^-3 molar", "value": 37.5, "unit": "%"},
      {"measurement": "inhibition at 4150 µM", "setting": "rat platelet aggregation; ADP 4.1×10^-6 M", "value": 51.9, "unit": "%"},
      {"measurement": "inhibition at 8300 µM", "setting": "rat platelet aggregation; ADP 4.1×10^-6 M", "value": 93.7, "unit": "%"},
      {"measurement": "inhibition at 4150 µM", "setting": "rat platelet aggregation; Collagen 33.3 μg/ml", "value": 34.5, "unit": "%"},
      {"measurement": "inhibition at 8300 µM", "setting": "rat platelet aggregation; Collagen 33.3 μg/ml", "value": 52.7, "unit": "%"},
      {"measurement": "Euglobin lysis time: Von Kaulas's test", "setting": "[2]; 4th day", "value": "140.0 ± 12.3", "unit": "min"},
      {"measurement": "Activated kaolin test", "setting": "[2]; 4th day", "value": "0.797±0.03"},
      {"measurement": "Activated partial thromboplastin test: APTI", "setting": "[2]; 4th day", "value": "0.720±0.03"},
      {"measurement": "Howell's test", "setting": "[2]; 4th day", "value": "0.723±0.04"},
      {"measurement": "Plasma prothrombine test: Quick test", "setting": "[2]; 4th day", "value": "0.938±0.02"},
      {"measurement": "Serum prothrombin time", "setting": "[2]; 4th day", "value": "38.8 ± 2.7", "unit": "s"},
      {"measurement": "Bleeding time, Duke test", "setting": "[2]; 4th day", "value": "133.0 ± 19.3", "unit": "s"},
      {"measurement": "Clotting time", "setting": "[2]; 4th day", "value": "521.6 ± 29.7", "unit": "s"},
      {"measurement": "Thromboelastogram K", "setting": "[2]; 4th day", "value": "24.6±1.6", "unit": "cm"},
      {"measurement": "Thromboelastogram r", "setting": "[2]; 4th day", "value": "19.6±1.2", "unit": "cm"},
      {"measurement": "Euglobin lysis time: Von Kaulas's test", "setting": "[2]; 7th day", "value": "136.1 ± 11.5", "unit": "min"},
      {"measurement": "Activated kaolin test", "setting": "[2]; 7th day", "value": "0.890±0.02"},
      {"measurement": "Activated partial thromboplastin test: APTI", "setting": "[2]; 7th day", "value": "0.890±0.03"},
      {"measurement": "Howell's test", "setting": "[2]; 7th day", "value": "0.807±0.04"},
      {"measurement": "Plasma prothrombine test: Quick test", "setting": "[2]; 7th day", "value": "0.933±0.02"},
      {"measurement": "Serum prothrombin time", "setting": "[2]; 7th day", "value": "37.3 ± 3.9", "unit": "s"},
      {"measurement": "Bleeding time, Duke test", "setting": "[2]; 7th day", "value": "116.0 ± 13.8", "unit": "s"},
      {"measurement": "Clotting time", "setting": "[2]; 7th day", "value": "526.6 ± 25.6", "unit": "s"},
      {"measurement": "Thromboelastogram K", "setting": "[2]; 7th day", "value": "22.1±1.5", "unit": "cm"},
      {"measurement": "Thromboelastogram r", "setting": "[2]; 7th day", "value": "21.6±3.6", "unit": "cm"},
      {"measurement": "anticoagulant action (in words)", "setting": "[2]; humans", "value": "exert an anticoagulant action"},
      {"measurement": "blood fibrinolytic activity (in words)", "setting": "[2]; humans", "value": "increase of the blood fibrinolytic activity"},
      {"measurement": "Clot retraction", "setting": "[2]; days not separated", "value": "NEGATIVE"},
      {"measurement": "Degradation products of fibrinogen: DPF", "setting": "[2]; days not separated", "value": "NEGATIVE"},
      {"measurement": "Parrot's test", "setting": "[2]; days not separated", "value": "POSITIVE IN TWO HUMANS"},
      {"measurement": "Tourniquet test", "setting": "[2]; days not separated", "value": "NEGATIVE"},
      {"measurement": "inhibition at 6250 µM", "setting": "[3]; ADP 1.6×10^-6 M, plasma concentration 6.25×10^-3 molar", "value": 22.5, "unit": "%"},
      {"measurement": "inhibition at 8300 µM", "setting": "[3]; ADP 1.6×10^-6 M", "value": 38.6, "unit": "%"},
      {"measurement": "inhibition at 4100 µM", "setting": "[3]; Collagen 33.3 mcg/ml, plasma concentration 4.10×10^-3 molar", "value": 37.5, "unit": "%"},
      {"measurement": "inhibition at 8300 µM", "setting": "[3]; Collagen 33.3 mcg/ml", "value": 62, "unit": "%"},
      {"measurement": "inhibition at 17000 µM", "setting": "[3]; Epinephrine 1.4×10^-6 M, plasma concentration 17.0×10^-3 molar", "value": 74, "unit": "%"},
      {"measurement": "in vivo action on human platelet aggregation (in words)", "setting": "[4]", "value": "far more effective compound"}
    ]}
  ]
}
